# From patent publication US10941157B2, “Pesticidal compositions and uses thereof” (Gilead Apollo, LLC, priority 2015, dated 2021)
# Like-named read-outs stand apart in the source and are kept apart here.
# Tests used:
# Format in all cases: cell-based
# Botrtyis cinerea (Bc) = assay: In vitro pathogen growth inhibition assay, Bc; settings: 48 h
# Protocol: (§1) A growth inhibition assay was conducted to determine the ability of compounds to control the growth of fungal pathogens, such as Botrtyis cinerea (Bc), Collectotrichum graminicola (Cg), Diplodia maydis (Dm), Fusarium moniliforme (Fm), Fusarium virguliforme (Fv), Phytophthora capsici (Pc), Rhizoctonia solani (Rs), and Septoria tritici (St). The compounds listed in Table 1 were each dissolved in DMSO at 2.5 mg/ml to produce compound stock solutions (“stocks”). […] Negative controls on each plate included 2% DMSO, water, and a blank (media+2% DMSO). Fungal spores were isolated from previously sub-cultured plates of Botrtyis cinerea (Bc), Collectotrichum graminicola (Cg), Diplodia maydis (Dm), Fusarium moniliforme (Fm), Fusarium virguliforme (Fv), Phytophthora capsici (Pc), and Septoria tritici (St). The isolated spores were diluted to individual concentrations with a 17% V8 liquid media. For Rhizoctonia solani (Rs), 1.5 mm mycelial plugs were used in place of spores and ¼ Potato Dextrose Broth (PDB) was used for dilution. The spore concentrations and plug sizes were based on growth curves generated at 48 hours for each pathogen. In a second 96-well plate, the spores or mycelial plugs, media, diluted compound solutions, and controls were combined. Once the compound was added, a true final concentration of compound in each well was measured by an OD600 reading, which adjusted for any compound precipitation that might have occurred in the well. Plate readings were repeated at both 24 and 48 hours. The blank negative control was used as a background subtraction. Additional visual ratings were performed at both 24 and 48 hours for checking on precipitation and confirming efficacy. […] Both tables list the concentration of each compound that was sufficient to ≥90% inhibition of growth for each of the fungal pathogens listed above. In addition, some of compounds were tested in a yeast growth inhibition assay for Saccharomyces cerevisiae (Sc). Table 2 lists the concentration of the tested compound that was sufficient to ≥75% inhibition of Saccharomyces cerevisiae (Sc).
# [1] = system: Collectotrichum graminicola (Cg); assay: In vitro pathogen growth inhibition assay, Cg; settings: 48 h
# Protocol: as §1
# Diplodia maydis (Dm) = assay: In vitro pathogen growth inhibition assay, Dm; settings: Stenocarpella maydis, 48 h
# Protocol: as §1
# [2] = system: Fusarium moniliforme (Fm); assay: In vitro pathogen growth inhibition assay, Fm; settings: Fusarium verticillioides
# Protocol: as §1
# [3] = system: Fusarium virguliforme (Fv); assay: In vitro pathogen growth inhibition assay, Fv
# Protocol: as §1
# [4] = system: Phytophthora capsici (Pc); assay: In vitro pathogen growth inhibition assay, Pc; settings: 48 h
# Protocol: as §1
# Rhizoctonia solani (Rs) = assay: In vitro pathogen growth inhibition assay, Rs (mycelial plugs); settings: for IC90: Rhizoctonia solani, 48 h
# Protocol: as §1
# Septoria tritici (St) = assay: In vitro pathogen growth inhibition assay, St; settings: for IC90: Zymoseptoria tritici, 48 h
# Protocol: as §1
# [5] = ≥90% growth inhibition, 48 hours, vs 2% DMSO control, read-out: Compound Concentration (ppm) sufficient for ≥90% inhibition of Bc
# [6] = ≥90% growth inhibition, 48 hours, vs 2% DMSO control, read-out: Compound Concentration (ppm) sufficient for ≥90% inhibition of Cg
# [7] = ≥90% growth inhibition, 48 hours, vs 2% DMSO control, read-out: Compound Concentration (ppm) sufficient for ≥90% inhibition of Dm
# [8] = ≥90% growth inhibition, 48 hours, vs 2% DMSO control, read-out: Compound Concentration (ppm) sufficient for ≥90% inhibition of Fm
# [9] = ≥90% growth inhibition, 48 hours, vs 2% DMSO control, read-out: Compound Concentration (ppm) sufficient for ≥90% inhibition of Fv
# [10] = ≥90% growth inhibition, 48 hours, vs 2% DMSO control, read-out: Compound Concentration (ppm) sufficient for ≥90% inhibition of Pc
# [11] = ≥90% growth inhibition, mycelial plugs, 48 hours, vs 2% DMSO control, read-out: Compound Concentration (ppm) sufficient for ≥90% inhibition of Rs
# [12] = ≥90% growth inhibition, 48 hours, vs 2% DMSO control, read-out: Compound Concentration (ppm) sufficient for ≥90% inhibition of St
# [13] = ≥90% inhibition, 48 hours vs 2% DMSO control, read-out: Compound Concentration (ppm) sufficient for ≥90% inhibition of growth, Bc
# [14] = ≥90% inhibition, 48 hours vs 2% DMSO control, read-out: Compound Concentration (ppm) sufficient for ≥90% inhibition of growth, Cg
# [15] = ≥90% inhibition, 48 hours vs 2% DMSO control, read-out: Compound Concentration (ppm) sufficient for ≥90% inhibition of growth, Dm
# [16] = ≥90% inhibition, 48 hours vs 2% DMSO control, read-out: Compound Concentration (ppm) sufficient for ≥90% inhibition of growth, Fm
# [17] = ≥90% inhibition, 48 hours vs 2% DMSO control, read-out: Compound Concentration (ppm) sufficient for ≥90% inhibition of growth, Fv
# [18] = ≥90% inhibition, 48 hours vs 2% DMSO control, read-out: Compound Concentration (ppm) sufficient for ≥90% inhibition of growth, Pc
# [19] = ≥90% inhibition, mycelial plugs, 48 hours vs 2% DMSO control, read-out: Compound Concentration (ppm) sufficient for ≥90% inhibition of growth, Rs
# [20] = ≥90% inhibition, 48 hours vs 2% DMSO control, read-out: Compound Concentration (ppm) sufficient for ≥90% inhibition of growth, St
# [21] = concentration sufficient to ≥90% inhibition of growth, 48 hours vs 2% DMSO control, read-out: Compound Concentration (ppm) for ≥90% inhibition, Bc
# [22] = concentration sufficient to ≥90% inhibition of growth, 48 hours vs 2% DMSO control, read-out: Compound Concentration (ppm) for ≥90% inhibition, Cg
# [23] = concentration sufficient to ≥90% inhibition of growth, 48 hours vs 2% DMSO control, read-out: Compound Concentration (ppm) for ≥90% inhibition, Dm
# [24] = concentration sufficient to ≥90% inhibition of growth, 48 hours vs 2% DMSO control, read-out: Compound Concentration (ppm) for ≥90% inhibition, Fm
# [25] = concentration sufficient to ≥90% inhibition of growth, 48 hours vs 2% DMSO control, read-out: Compound Concentration (ppm) for ≥90% inhibition, Fv
# [26] = concentration sufficient to ≥90% inhibition of growth, 48 hours vs 2% DMSO control, read-out: Compound Concentration (ppm) for ≥90% inhibition, Pc
# [27] = concentration sufficient to ≥90% inhibition of growth, 48 hours vs 2% DMSO control, read-out: Compound Concentration (ppm) for ≥90% inhibition, Rs
# [28] = concentration sufficient to ≥90% inhibition of growth, 48 hours vs 2% DMSO control, read-out: Compound Concentration (ppm) for ≥90% inhibition, St
# [29] = ≥90% growth inhibition, mycelial plugs, 48 hours, vs 2% DMSO control
# [30] = ≥90% growth inhibition, 48 hours, vs 2% DMSO control
smiles,measurement,setting,value
Cc1c(-n2nccn2)sc2c1c(=O)n(C(C)(C)C(=O)NC(C)C)c(=O)n2C[C@H](OCC(C)(C)C#N)c1cc(C#N)ccc1OCC#N [Compound I-269],IC90,Botrtyis cinerea (Bc); [5],10 µg/mL
same,IC90,[1]; [6],> 50 µg/mL
same,IC90,Diplodia maydis (Dm); [7],> 50 µg/mL
same,IC90,[2]; [8],0.4 µg/mL
same,IC90,[3]; [9],10 µg/mL
same,IC90,[4]; [10],> 50 µg/mL
same,IC90,Rhizoctonia solani (Rs); [11],2 µg/mL
same,IC90,Septoria tritici (St); [12],> 50 µg/mL
COc1ccc(F)cc1[C@H](Cn1c(=O)n(C(C)(C)C(=O)N2CCCC2)c(=O)c2c(C)c(-n3nccn3)sc21)OC(C)C [Compound I-023],IC90,Botrtyis cinerea (Bc); [13],0.4 µg/mL
same,IC90,[1]; [14],0.08 µg/mL
same,IC90,Diplodia maydis (Dm); [15],0.08 µg/mL
same,IC90,[2]; [16],0.08 µg/mL
same,IC90,[3]; [17],≥ 0.08 µg/mL
same,IC90,[4]; [18],> 50 µg/mL
same,IC90,Rhizoctonia solani (Rs); [19],0.08 µg/mL
same,IC90,Septoria tritici (St); [20],> 10 µg/mL
COc1ccc(F)cc1[C@H](Cn1c(=O)n([C@H](C)C(N)=O)c(=O)c2c(C)c(-n3nccn3)sc21)OCCC#N [Compound I-200],IC90,Botrtyis cinerea (Bc); [5],2 µg/mL
same,IC90,[1]; [6],> 50 µg/mL
same,IC90,Diplodia maydis (Dm); [7],> 50 µg/mL
same,IC90,[2]; [8],2 µg/mL
same,IC90,[3]; [9],2 µg/mL
same,IC90,[4]; [10],> 50 µg/mL
same,IC90,Rhizoctonia solani (Rs); [11],2 µg/mL
same,IC90,Septoria tritici (St); [12],> 50 µg/mL
CCNC(=O)C(C)(C)n1c(=O)c2c(C)c(-n3nccn3)sc2n(C[C@@H](O)c2cc(F)ccc2OC)c1=O [Compound I-291],IC90,Botrtyis cinerea (Bc); [21],50 µg/mL
same,IC90,[1]; [22],> 50 µg/mL
same,IC90,Diplodia maydis (Dm); [23],50 µg/mL
same,IC90,[2]; [24],10 µg/mL
same,IC90,[3]; [25],50 µg/mL
same,IC90,[4]; [26],> 50 µg/mL
same,IC90,Rhizoctonia solani (Rs); [27],2 µg/mL
same,IC90,Septoria tritici (St); [28],> 50 µg/mL
COc1ccc(F)cc1[C@H](Cn1c(=O)n(C(C)(C)C(N)=O)c(=O)c2c(C)c(-n3nccn3)sc21)OCC(C)C [Compound I-165],IC90,Botrtyis cinerea (Bc); [5],2 µg/mL
same,IC90,[1]; [6],2 µg/mL
same,IC90,Diplodia maydis (Dm); [7],2 µg/mL
same,IC90,[2]; [8],≥ 0.08 µg/mL
same,IC90,[3]; [9],2 µg/mL
same,IC90,[4]; [10],> 50 µg/mL
same,IC90,Rhizoctonia solani (Rs); [11],2 µg/mL
same,IC90,Septoria tritici (St); [12],> 50 µg/mL
COc1ccc(F)cc1[C@@H](O)Cn1c(=O)n(C(C)(C)C(N)=O)c(=O)c2c(C)c(-n3nccn3)sc21 [Compound I-221],IC90,Botrtyis cinerea (Bc); [21],10 µg/mL
same,IC90,[1]; [22],50 µg/mL
same,IC90,Diplodia maydis (Dm); [23],> 50 µg/mL
same,IC90,[2]; [24],10 µg/mL
same,IC90,[3]; [25],50 µg/mL
same,IC90,[4]; [26],> 50 µg/mL
same,IC90,Rhizoctonia solani (Rs); [27],> 50 µg/mL
same,IC90,Septoria tritici (St); [28],> 50 µg/mL
COc1ccc(F)cc1[C@H](Cn1c(=O)n(C(C)(C)C(N)=O)c(=O)c2c(C)c(-n3cccn3)sc21)OC1CCOCC1 [Compound I-146],IC90,Botrtyis cinerea (Bc); [13],2 µg/mL
same,IC90,[1]; [14],10 µg/mL
same,IC90,Diplodia maydis (Dm); [15],50 µg/mL
same,IC90,[2]; [16],2 µg/mL
same,IC90,[3]; [17],50 µg/mL
same,IC90,[4]; [18],> 50 µg/mL
same,IC90,Rhizoctonia solani (Rs); [19],50 µg/mL
same,IC90,Septoria tritici (St); [20],> 50 µg/mL
CCOC(=O)c1sc2c(c1C)c(=O)n([C@H](C)C(=O)NC(C)C)c(=O)n2C[C@H](OCCC#N)c1cc(F)ccc1OC [Compound I-330],Compound Concentration (ppm) sufficient for ≥90% inhibition of Rs,Rhizoctonia solani (Rs); [29],2 ppm
same,Compound Concentration (ppm) sufficient for ≥90% inhibition of St,Septoria tritici (St); [30],>50 ppm
CCOC(=O)c1sc2c(c1C)c(=O)n(C(C)(C)C(=O)NC(C)C)c(=O)n2C[C@H](OCCC#N)c1cc(F)ccc1OC [Compound I-300],Compound Concentration (ppm) sufficient for ≥90% inhibition of Rs,Rhizoctonia solani (Rs); [29],0.08 ppm
same,Compound Concentration (ppm) sufficient for ≥90% inhibition of St,Septoria tritici (St); [30],>50 ppm
